System: C57BL/6J mice injected with AAV (LacZ transgene)
Assay: In vivo mouse AAV model: CD8 TEM and lacZ tetramer staining of PBMCs and splenocytes
Details: chow 30 mg/kg from 15 days prior to AAV injection; day 14 post AAV; versus AAV group; N=10
Method: In-vivo mice experiments. C57BL/6J mice were purchased from Jackson Laboratories. 6-8-week male mice were divided into 3 groups—PBS group, AAV group and AAV+IRAK4 group all groups with 10 mice each. Zimlovisertib IRAK4 inhibitor (Synonyms: PF-06650833) Cat. No.: HY-19836 (MedChemExpress) was mixed with mouse chow Catalog #2016, Teklad Global 16% Protein Rodent Diets https://www.inotivco.com/rodent-natural-ingredient-2016-diets at a dose of 30 mg/kg. AAV+IRAK4 group was fed the chow with Zimlovisertib IRAK4 inhibitor 15 days prior to AAV injection whereas PBS and AAV group were fed with mouse chow Catalog #2016, Teklad Global 16% Protein Rodent Diets https://www.inotivco.com/rodent-natural-ingredient-2016-diets. PBS group mice were injected intramuscularly with 100 ul PBS, AAV group was injected intramuscularly with 1e11 vg per quadricep muscle of both legs, 100 ul volume.
The same experiment design was followed with n=6 mice in each group PBS group, AAV group and AAV+IRAK4 degrader PROTAC IRAK4 degrader-1 Cat. No.: HY-129966 (MedChemExpress) that was mixed with chow at 100 mg/kg and fed to mice 15 days prior to AAV injection. […] AAV capsid used in the study had LacZ transgene. All animal experiments were conducted in accordance with the Institutional Animal Care and Use Committees at Sanofi, Framingham. Submandibular bleeds were performed weekly, and necropsy was performed three weeks post AAV injection.
PBMC isolation and surface staining. 120 ul blood was collected in K2EDTA coated tubes. The blood was mixed with DBPS at 1:1 ration and pipetted into a separate tube containing Ficoll (GE17-5442-02) to ensure no mixing of the blood and Ficoll phases. The mixture was centrifuged at 2000 RPM for 25 minutes at room temperature (9 acceleration and no braking). The buffy coat containing the peripheral blood mononuclear cells (PBMCs) was collected, transferred to a new tube, and centrifuged for five minutes at 400 RCF. PBMCs were washed three times with phosphate buffered saline (PBS) containing 1% fetal bovine serum (FBS) or fetal calf serum (FCS) and counted. The PBMC cells thus obtained were stained with different antibodies to quantify percentage of different immune cell subsets in peripheral blood.
PBMC CD8 TEM and lacZ tetramer staining. The PBMC was isolated from ˜120 μl of mouse blood, and it was transferred to a 96-well U-bottom plate. […]

## CC[C@@H]1[C@H](F)C(=O)N[C@@H]1COc1nccc2cc(C(N)=O)c(OC)cc12 [zimlovisertib, 1-[[(2S,3S,4S)-3-Ethyl-4-fluoro-5-oxo-2-pyrrolidinyl]methoxy]-7-methoxy-6-isoquinolinecarboxamide]
  CD44+CD62L+ effector memory cells in PBMCs: significant reduction
  LacZ tetramer positive CD8 T cells in PBMCs: significant reduction
